SMILES strings stand for the structures. Entries after “also recorded” stand apart in the source; their conditions may differ.

The subject of one data set is New Zealand white rabbit. The data set is described as follows: Serum lipids in hyperlipidemia New Zealand rabbits on high fat diet. The data set is classed as in vivo. As to conditions: 12 weeks. As to the method:
Forty-eight male New Zealand rabbits weighed 1.8 to 2.2 kg were housed under 12 h dark-12 h light cycles and allowed food and water ad libitum to adapt to the housing environment for one week, and then randomly divided into 6 groups: • 1) Control group (Normal diet, n=8); Administered intragastrically with ultrapure water; • 2) Model group (High fat diet, n=8); Administered intragastrically with ultrapure water; • 3) Leonurine crystal form A in low dose group (High fat diet, n=8); Administered intragastrically at a dose of 4 mg/kg/day; • 4) Leonurine crystal form A in middle dose group (High fat diet, n=8); Administered intragastrically at a dose of 8 mg/kg/day; • 5) Leonurine crystal form A in high dose group (High fat diet, n=8); […] Administered intragastrically at a dose of 2.5 mg/kg/day; Rabbits were weighed before administered drugs every week, where the dosage of the drug for rabbits is calculate according to the weight; and housed in an air-conditioned room under (24±1° C. room temperature and 55±5% air humidity) and allowed enough food and water ad libitum. After 12 weeks of administration, the rabbits were fasted for 12 h, and blood (2 ml) was drawn from the marginal ear vein for hematology analysis. Hematology analysis: blood samples were let for standing for 2 h and centrifuged (3000 rpm, 10 min, 4° C.) to obtain serum. The serum samples were tested according to the protocols recommended by Nanjing Jiancheng Bioengineering Institute. The total cholesterol (TC), triacylglycerol (TG), low-density cholesterol (LDL-C) and […] (HDL-C) levels in the serum samples were assessed using automatic microplate reader and automatic biochemical analyzer. Statistical analysis: GraphPad Prism 5 software was used to analyze and draw figure. Results were expressed as the mean±standard (mean±SD), and statistical analysis was performed by one-way analysis of variance (ANOVA) or student's t test. A difference with P<0.05 was considered statistically significant. Statistical significance was set at *P<0.05, **P<0.01, ***P<0.001 versus the model group.

In the next data set the test system is New Zealand rabbits. The data set is described as follows: Carotid atherosclerotic plaque intima-media thickness (IMT) by high-frequency ultrasound in rabbit atherosclerosis model. The format is in vivo. The note with it: for intimal-medial thickness (IMT) at the largest carotid plaque: high fat diet 8 weeks, vs model group. As to the method: Forty-two male New Zealand rabbits weighed 2.0 to 2.5 kg were fed with normal diet to adapt to the housing environment for one week before experiment, and then the rabbits were fed with high fat diet (1% cholesterol; SF00-221 SpecialtyFeed Australia) for 8 weeks to establish the rabbit model of atherosclerosis. […] When the rabbits were started to give high fat diet, various drugs or vehicle (NC and MD groups) were simultaneously administered. The drug was administered once a day continuously for 8 weeks and weighed once a week to adjust the dose of drugs. Rabbits were caged in an air-conditioned room (24±1° C. room temperature and 55±5% air humidity) with 12 h light per day and had free access to water and were fed ad libitum. High-frequency ultrasound detection of carotid plaque: the high-frequency microscopy imaging system (Vevo770) was used to detect carotid atherosclerotic plaque at the end of the 8th week of the experiment. The rabbits were anesthetized with 3% pentobarbital sodium in the dose of 30 mg/kg. Using the RMV707B probe (resolution 30 MHz) to observe the carotid bifurcation plaque and measure the blood flow velocity on the carotid artery long axis section by two-dimensional ultrasound. Then adjust direction of the probe so that the angle between the probe and the carotid artery is less than 60° to obtain the long-axis view. The intima-media thickness (IMT) is measured at the maximum end-diastolic plaque. The measurement to detected IMT is taking the vertical distance between the lumen-intimal echo to the medial-outer membrane echo, and detecting the atherosclerotic plaque on the right common carotid artery bifurcation proximal. The carotid ultrasound images and the maximum IMT at the plaque were analyzed, and the morphology of atherosclerotic plaques was evaluated. The data were analyzed by Vevo770 microscopy imaging system software. All measurements were repeated twice in the same area and averaged.

Data set [1] in a line: Chronic administration for 3 weeks, body weight of rats. As to conditions: fourth week (one week after discontinuation), vs solvent control, listed as leonurine crystal form A. The format is in vivo, rat. How it is done: (§1) Forty male Sprague-Dawley rats weighed 180 to 220 g were randomly divided into 4 groups (10 rats each group): control group are treated with equal volume of DMSO, and the treatment groups were administered at 30 mg/kg per day, 60 mg/kg per day, and 120 mg/kg per day of leonurine crystal form A respectively, where leonurine crystal form A was dissolved in DMSO at concentrates of 30 mg/ml, 60 mg/ml and 120 mg/ml, and the volume of vehicle administered intragastrically in each rat was 1 ml per kg of body weight. The rats were treated with leonurine crystal form A or DMSO once a day continuously for 3 weeks, and the body weight and fasting blood-glucose were detected at third week. The rats were fasted (allowed water ad libitum) for 12 h before experiment. Fasting blood-glucose and body weight were tested after 1 h of administered drugs. The rats were not given drugs on the next days for one week, and the body weight and fasting blood-glucose were detected at forth week. The data were analyzed by SPSS statistical software (version 11.5), and results were expressed as the mean±standard error of the mean (mean±SEM). Multiple group comparisons were tested by one-way analysis of variance (ANOVA). P<0.05 was considered as statistically significant.

Data set [2] is described as follows: Accelerated stability test of leonurine crystal forms. The format is physicochemical. The note with it: for Crystal stability: 70% RH, 10 days. The text has this: In the invention, the dominant medicinal crystal form was also screened by the accelerated stability experimental method, and observed the transformation among the various crystal forms.
For the next data set, the system named is Sprague-Dawley rats. The data set is described as follows: Chronic administration for 3 weeks, fasting blood glucose of rats. The format is in vivo, rat. The note with it: vs solvent control, listed as leonurine crystal form A. As to the method:
as §1

For a further data set, the system named is rhesus monkey. The data set is described as follows: Model of rhesus monkey with hyperlipidemia, long-term administration. The data set is classed as in vivo.
Setting [3] is: dose not stated, listed as leonurine crystal form A.
Setting [4] is: high dose group 16 mg/kg/day intragastric, vs model group.
The mark [5] stands for this setting: 40° C., relative humidity 60%-80%, 10-day stability test, listed as leonurine crystal form A.

Regarding `COc1cc(C(=O)OCCCCNC(=N)N)cc(OC)c1O` [crystal form A, 4-guanidino-1-butyl 4-hydroxy-3,5-dimethoxybenzoate], the “serum total cholesterol (TC)” value with New Zealand white rabbit (setting [3]) is reported as “reduce; also recorded: decrease”; with New Zealand white rabbit (setting [4]), “reduced”. For the same compound, the “serum triglycerides / total triacylglycerol (TG)” value with New Zealand white rabbit (setting [3]) is “reduce; also recorded: decrease”. The “serum triacylglycerol (TG)” value with New Zealand white rabbit (setting [4]) is recorded as “reduced”; in the data set on New Zealand white rabbit (middle dose group 8 mg/kg/day intragastric, vs model group) it was “reduced”. Besides, the “carotid plaque thickness / IMT growth induced by high fat” value with New Zealand rabbits (high fat diet 8 weeks, 4, 8, 16 mg/kg/day, dose-dependent effect) is given as “significantly inhibited IMT growth”. For the same compound, the “intimal-medial thickness (IMT) at the largest carotid plaque” value with New Zealand rabbits (high dose group 16 mg/kg/d) and in the data set on New Zealand rabbits (medium dose group 8 mg/kg/d) was “decrease plaque thickness” throughout. The weight of rats entry in data set [1] (60 mg/kg/d for 3 weeks) is given as “significantly reduced; also recorded: significantly decreased”; in data set [1] (120 mg/kg/d for 3 weeks), “had not statistically difference; also recorded: not statistically significant”. The Crystal stability entry in data set [2] (40° C.) was “remain unchanged”; in data set [2] (40° C., listed as A) it was “stable”. In addition, in data set [2] (setting [5]), the crystal transformation behavior entry was “no crystal transformation behavior”. The “hygroscopicity (in words)” value in data set [2] (setting [5]) was “not obvious”. Also, the “stability in accelerating experiments” value in data set [2] (40° C./75% RH) is “most stable”. The “fasting blood glucose of rats” value in the data set on Sprague-Dawley rats (60 mg/kg/d for 3 weeks, fourth week) was “significantly reduced; also recorded: decreased fasting blood glucose”; in the data set on Sprague-Dawley rats (60 mg/kg/d, after 3 weeks of continuous administration) it was “had not statistically difference; also recorded: not statistically significant”; with Sprague-Dawley rats (120 mg/kg/d for 3 weeks, fourth week), “significantly reduced; also recorded: decreased fasting blood glucose”; in the data set with Sprague-Dawley rats (120 mg/kg/d, after 3 weeks of continuous administration), “significant reduce; also recorded: significantly decreased”. The “low-density lipoprotein (LDL-C)” value with rhesus monkey is recorded as “decreasing”. For the same compound, in the data set with rhesus monkey, the “total cholesterol (TC)” value is given as “decreasing”.
